The values that follow come from patent publication US8063048B2, “Acetylenyl-pyrazolo-pyrimidine derivatives” (Hoffmann-La Roche Inc., priority 2005, dated 2011).

pKi: −log10 of the molar value.

One may read the pKi as −log10 of the Ki, conventionally taken in molar units. Low values mean a large Ki, high ones a small Ki. The melting point is the temperature of the solid-liquid transition.

In data set [1] the target is T1, mGlu2 receptor (Rattus norvegicus, UniProt P31421).
T1 construct: expressed in transfected cells; membranes prepared
The data set is described as follows: [3H]-LY354740 binding on mGlu2 transfected CHO cell membranes. To be noted: inhibition of 10 nM [3H]-LY354740 binding, membranes of CHO cells transfected with rat mGlu2, room temperature, 1 hour. The text has this:
[^3H]-LY354740 Binding on mGlu2 Transfected CHO Cell Membranes. Transfection and Cell Culture
cDNA encoding the rat mGlu2 receptor protein in pBluescript II was subcloned into the eukaryotic expression vector pcDNA I-amp from Invitrogen Ltd (Paisley, UK). This vector construct (pcD1mGR^2) was co-transfected with a psvNeo plasmid encoding the gene for neomycin resistance, into CHO cells by a modified calcium phosphate method described by Chen & Okayama (1988). The cells were maintained in Dulbecco's Modified Eagle medium with reduced L-glutamine (2 mM final concentration) and 10% dialyzed fetal calf serum from Gibco-Invitrogen (Carlsbad, Calif., USA). Selection was made in the presence of G-418 (1000 ug/mL final) and MCPG[…]. Clones were identified by reverse transcription of 5 μg total RNA, followed by PCR using mGlu2 receptor specific primers 5′-[…]-3′ and 5′-[…]-3′ in 60 mM Tris HCl (pH 10), 15 mM (NH4)2SO4, 2 mM MgCl2, 25 units/mLTaq Polymerase with 30 cycles annealing at 60° C. for 1 min., extention at 72° C. for 30 s, and 1 min. 95° C. denaturation.
Cells, cultured as above, were harvested and washed three times with cold PBS and frozen at −80° C. The pellet was resuspended in cold 20 mM HEPES-NaOH buffer containing 10 mM EDTA (pH 7.4) and homogenized with a polytron (Kinematica, AG, Littau, Switzerland) for 10 s at 10 000 rpm. After centrifugation for 30 min. at 4° C., the pellet was washed once with the same buffer, and once with cold 20 mM HEPES-NaOH buffer containing 0.1 mM EDTA, (pH 7.4). Protein content was measured using the micro BCA method from Pierce-Perbio (Rockford, Ill., USA) using bovine serum albumin as standard.
After thawing, the membranes were resuspended in cold 50 mM Tris-HCl buffer containing 2 mM MgCl2 (pH 7) (binding buffer). The final concentration of the membranes in the assays was 25 μg protein/ml. Inhibition experiments were performed with membranes incubated with 10 nM [^3H]-LY354740 at room temperature, for 1 hour, in presence of various concentrations of the compound to be tested. Following the incubations, membranes were filtered onto Whatmann GF/B glass fiber filters and washed 5 times with cold binding buffer. Non specific binding was measured in the presence of 10 μM DCG IV. After transfer of the filters into plastic vials containing 10 mL of Ultima-gold scintillation fluid from Perkin-Elmer (Boston, Mass., USA), the radioactivity was measured by liquid scintillation in a Tri-Carb 2500 TR counter (Packard, Zürich, Switzerland).
The inhibition curves were fitted with a four parameter logistic equation giving IC50 values, and Hill coefficients.

T1 sequence (P31421 19-872): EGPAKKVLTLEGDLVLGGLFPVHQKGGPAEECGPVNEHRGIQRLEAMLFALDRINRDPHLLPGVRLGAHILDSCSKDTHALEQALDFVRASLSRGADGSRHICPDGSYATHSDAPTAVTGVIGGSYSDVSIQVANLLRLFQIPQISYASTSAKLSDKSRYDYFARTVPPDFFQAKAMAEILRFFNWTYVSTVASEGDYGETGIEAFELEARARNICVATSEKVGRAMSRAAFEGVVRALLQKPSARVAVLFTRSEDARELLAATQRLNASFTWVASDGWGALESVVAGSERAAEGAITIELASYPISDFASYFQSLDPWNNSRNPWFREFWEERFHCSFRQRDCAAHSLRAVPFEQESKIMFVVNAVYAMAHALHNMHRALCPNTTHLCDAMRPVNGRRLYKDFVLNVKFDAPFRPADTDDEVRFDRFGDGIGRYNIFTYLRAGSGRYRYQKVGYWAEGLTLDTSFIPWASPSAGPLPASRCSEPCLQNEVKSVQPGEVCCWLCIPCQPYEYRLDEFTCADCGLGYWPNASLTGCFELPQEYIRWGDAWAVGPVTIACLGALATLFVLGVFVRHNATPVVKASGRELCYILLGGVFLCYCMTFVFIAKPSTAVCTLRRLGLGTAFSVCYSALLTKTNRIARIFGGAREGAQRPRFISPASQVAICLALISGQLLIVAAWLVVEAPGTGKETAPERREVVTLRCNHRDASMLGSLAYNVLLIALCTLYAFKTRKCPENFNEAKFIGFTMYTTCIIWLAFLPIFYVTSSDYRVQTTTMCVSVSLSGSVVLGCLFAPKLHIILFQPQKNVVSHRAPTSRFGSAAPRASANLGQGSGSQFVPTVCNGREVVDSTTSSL

As for `NS(=O)(=O)c1cc(C#Cc2cnc3c(C(F)(F)F)cc(-c4ccc(C(F)(F)F)cc4)cn23)c(F)cc1F` [Example 180, 2,4-Difluoro-5-[8-trifluoromethyl-6-(4-trifluoromethyl-phenyl)-imidazo[1,2-a]pyridin-3-ylethynyl]-benzenesulfonamide], the melting point was in the range of 306 to 307 °C. Also, in data set [1], the pKi was 8.05.

Regarding `NS(=O)(=O)c1ccc(C#Cc2ncn3c(C(F)(F)F)cc(-c4ccc(C(F)(F)F)cc4)nc23)s1` [Example 179, 5-[4-Trifluoromethyl-2-(4-trifluoromethyl-phenyl)-imidazo[1,5-a]pyrimidin-8-ylethynyl]-thiophene-2-sulfonic acid amide], the melting point worked out at 255 °C. The pKi in data set [1] is 9.00.

For `CN1CCN(S(=O)(=O)c2ccc(C#Cc3cnn4c(C(F)(F)F)cc(-c5ccc(C(F)(F)F)cc5)nc34)s2)CC1` [Example 157, 3-[5-(4-Methyl-piperazine-1-sulfonyl)-thiophen-2-ylethynyl]-7-trifluoromethyl-5-(4-trifluoromethyl-phenyl)-pyrazolo[1,5-a]pyrimidine], the melting point came to 250 °C. Further, the pKi in data set [1] is 8.10.

In the case of `CC(CO)(CO)NS(=O)(=O)c1cncc(C#Cc2cnn3c(C(F)(F)F)cc(-c4ccc(Cl)c(Cl)c4)nc23)c1` [Example 91, 5-[5-(3,4-Dichloro-phenyl)-7-trifluoromethyl-pyrazolo[1,5-a]pyrimidin-3-ylethynyl]-pyridine-3-sulfonic acid (2-hydroxy-1-hydroxymethyl-1-methyl-ethyl)-amide], the pKi in data set [1] is 8.40.

The compound `NS(=O)(=O)c1ccc(C#Cc2ncn3c(C(F)(F)F)cc(-c4ccc(C(F)(F)F)cc4)nc23)cc1` [Example 178, 4-[4-Trifluoromethyl-2-(4-trifluoromethyl-phenyl)-imidazo[1,5-a]pyrimidin-8-ylethynyl]-benzenesulfonamide] yielded a melting point of 290 °C. This compound had a pKi in data set [1] of 8.10.

The compound `NS(=O)(=O)c1cccc(C#Cc2cnn3c(C(F)(F)F)cc(-c4ccc(C(F)(F)F)cc4)nc23)c1` [Example 1, 3-[7-Trifluoromethyl-5-(4-trifluoromethyl-phenyl)-pyrazolo[1,5-a]pyrimidin-3-ylethynyl]-benzenesulfonamide] returned a melting point of 243 °C. Further, the pKi in data set [1] is 8.70.

Consider `NS(=O)(=O)c1ccc(C#Cc2cnn3c(C4CC4)cc(-c4ccc(Cl)c(Cl)c4)nc23)s1` [Example 86, 5-[7-Cyclopropyl-5-(3,4-dichloro-phenyl)-pyrazolo[1,5-a]pyrimidin-3-ylethynyl]-thiophene-2-sulfonic acid amide], for which the melting point was in the range of 213 to 214 °C. Further, the pKi in data set [1] was 8.52.
